One assay deals with Pferdethrombin. Description: Thrombin time (clotting of human citrate plasma with thrombin reagent, ball coagulometer). Type of assay: biochemical, Pferd. The conditions noted are these: thrombin time as difference to control (control ca. 24 Sek.), test stopped at 5 Min.; for TT2.5: 2.5 µM in final volume; for TT25: 25 µM in final volume; for TT250: 250 µM in final volume. The procedure: Ein in der klinischen Gerinnungsdiagnostik gebräuchlicher Test ist die Thrombinzeit. Dieser Parameter erfaßt die Thrombinwirkung auf Fibrinogen und die Gerinnselbildung. Inhibitoren von Thrombin bewirken eine Verlängerung der Thrombinzeit.
Zur Plasmagewinnung wurden 9 Teile frisches Blut gesunder Spender mit einem Teil Natriumcitratlösung (0.11 Mol/l) gemischt und bei ca. 3000 U/min 10 Min. bei Raumtemperatur zentrifugiert. Das Plasma wurde abpipettiert und kann bei Raumtemperatur ca. 8 h aufbewahrt werden.
200 µl Citratplasma wurden in einem Kugelkoagulometer (KC 10 der Firma Amelung) 2 Min. bei 37 °C inkubiert, Zu 190 µl vortemperiertem Thrombin-Reagenz (Boehringer Mannheim GmbH; enthält ca. 3 U/ml Pferdethrombin und 0.0125 M Ca^++) gab man 10 µl Dimethylsulfoxid (DMSO) oder eine Lösung der Wirksubstanz in DMSO. Mit Zugabe dieser 200 µl Lösung zum Plasma wurde eine Stoppuhr gestartet und der Zeitpunkt bis zum Eintritt der Gerinnung bestimmt. Die Thrombinzeit betrug bei den Kontrollmessungen ca. 24 Sek. und wurde durch die Wirksubstanzen deutlich verlängert. War die Thrombinzeit in Gegenwart einer Beispielverbindung länger als 5 Min.. wurde der Versuch abgebrochen.
In der folgenden Tabelle sind die gemessenen Thrombinzeiten in Sekunden als Differenz zur Kontrolle angegeben. Die Konzentrationen der Wirksubstanzen betrugen im Endvolumen 250 µM (TT250), 25 µM (TT25) und 2.5 µM (TT2.5).

In the next assay the target is T1, humanem α-Thrombin (Homo sapiens, UniProt P00734).
T1 construct: humanem α-Thrombin (Sigma, spezifische Aktivität = 2150 NIH-units/mg); purchased Sigma
Description: Thrombin inhibition, kinetic measurement with chromogenic substrate S-2238. The following applies: 0,1 M phosphate buffer, pH = 7.5, 25 °C, substrate H-(D)-Phe-Pro-Arg-pNA (S-2238). Type of assay: biochemical. As to the method:
Die kinetischen Messungen wurden in 0,1 M Phosphatpuffer, der 0.2 M Kochsalz und 0.5 % Polyethylenglycol 6000 enthielt. bei einem pH = 7.5 und 25 °C mit dem Substrat H-(D)-Phe-Pro-Arg-pNA (S-2238 Kabi) und humanem α-Thrombin (Sigma, spezifische Aktivität = 2150 NIH-units/mg) in Polystyrol-Halbmikroküvetten in einem Gesamtvolumen von 1 ml durchgeführt.
In einem Vorversuch wurde mit jeder Wirksubstanz bestimmt, ob sie Thrombin schnell oder langsam inhibiert. Dazu wurde die Reaktion einmal durch Zugabe von 0.03 NIH-units Thrombin zu einer 100 µM-Lösung des Substrats und des Wirkstoffs gestartet. In einem zweiten Versuch wurde Substrat zu einer 5 Min. inkubierten Lösung des Thrombins und des Wirkstoffs gegeben. Die Zunahme der Konzentration von p-Nitroanilin mit der Zeit wurde spektroskopisch (UV-VIS-Spektrophotometer Lambda-2 der Firma Perkin-Elmer) bei 405 nm 12 Min. verfolgt. Da die bei beiden Versuchen erhaltenen Messkurven linear und parallel waren, handelt es sich bei den Wirkstoffen der folgenden Tabelle um schnelle Thrombin-Inhibitoren. Die Inhibitionskonstanten Ki wurden dann wie folgt bestimmt. Das Substrat wurde in den Konzentrationen 100 µM, 50 µM. 30 µM, 20 µM eingesetzt und bei jeder Substratkonzentration eine Messung ohne Inhibitor und drei Messungen in Gegenwart unterschiedlicher Konzentrationen der in der folgenden Tabelle aufgeführten Inhibitoren durchgeführt. Die Reaktionen wurden durch Zugabe von Thrombin gestartet. Die Zunahme der Extinktion bei 405 nm durch das entstehende p-Nitroanilin über einen Zeitraum von 12 Min. verfolgt. Im Abstand von 20 Sek. wurden Meßpunkte (Zeit vs. Extinktion) auf einen PC übertragen. Aus den Daten wurden die Geschwindigkeiten Vo (Extinktionsänderung pro Sek.: Messungen ohne Inhibitor) und Vi (Messungen mit Inhibitor) durch lineare Regression bestimmt. Benutzt wurde nur der Teil jeder Messung. bei dem sich die Substratkonzentration um weniger als 15 % vermindert hatte. Aus einer Meßreihe (konstante Inhibitorkonzentration, variable Substratkonzentrationen) bestimmte man Km' und Vmax durch nichtlinearen Fit auf die Gleichung V =(Vmax ∗ [S])/([S] + Km ') [formula]
Aus den gesamten Meßreihen berechnete man schließlich Ki durch nichtlinearen Fit auf die Gleichung V =(Vmax ∗ [S])/(Km ∗ (1 + […] ) + [S]) [formula] Die Michaeliskonstante Km betrug in allen Messungen 3.8 ± 2 µM. Die Inhibitionskonstanten Ki der Wirksubstanzen sind in der folgenden Tabelle in der Einheit µM angegeben.

Usually Ki stands for the equilibrium dissociation constant of an inhibitor or competing ligand from its target. Read a high Ki as weaker binding.

In the assay on Pferdethrombin, `CCOC(=O)N(c1cc(C)cc(OCCNc2ccncc2)c1)S(=O)(=O)c1ccccc1OC` [Beispiel 125, N-Ethoxycarbonyl-N-{3-methyl-5-[2-(pyridin-4-ylamino)-ethoxy]-phenyl}-2-methoxybenzolsulfonamid] gave a TT2.5 of 73 Sekunden, a TT25 of 273 Sekunden and a TT250 of 300 Sekunden. The affinity at humanem α-Thrombin corresponds to a Ki of 150 nM.
Taken in the same sequence, the figures for `O=S(=O)(c1ccccc1)N(Cc1ccccc1)c1cccc(OCCNc2ccncc2)c1` [Beispiel 15, N-Benzyl-N-{3-[2-(pyridin-4-ylamino)-ethoxy]-phenyl}-benzolsulfonamid] were 15 Sekunden, 144 Sekunden, 270 Sekunden and 130 nM.
Taken in the same sequence, the figures for `O=S(=O)(Nc1cccc(OCCNc2ccncc2)c1)c1cccc2ccccc12` [Beispiel 2, N-{3-[2-(Pyridin-4-ylamino)-ethoxy]-phenyl}-1-naphthalin-sulfonamid] were 6 Sekunden, 40 Sekunden, 150 Sekunden and 300 nM.
Taken in the same sequence, the figures for `O=S(=O)(c1cc(Cl)cc(NCCNc2ccncc2)c1)N(Cc1ccccc1)c1ccccc1` [Beispiel 86, 3-Chlor-N-benzyl-N-phenyl-5-[2-(pyridin-4-ylamino)-ethylamino]-benzolsulfonamid] were 11 Sekunden, 167 Sekunden, 300 Sekunden and 40 nM.
Turning to `Cc1cc(OCCNc2ccncc2)cc(N(CCCCCC(=O)O)S(=O)(=O)c2ccccc2)c1` [Beispiel 108, 6-(Benzolsulfonyl-{3-methyl-5-[2-(pyridin-4-yl-amino)-ethoxy]-phenyl}-amino)-hexansäure], in the assay with Pferdethrombin, the TT2.5 is 62 Sekunden, the TT25 is 300 Sekunden and the TT250 was 300 Sekunden. This compound also registered a Ki on humanem α-Thrombin of 55 nM.
In the case of `COc1cc(OCCNc2ccncc2)cc(S(=O)(=O)N(C)c2ccccc2)c1` [Beispiel 80, 3-Methoxy-N-methyl-N-phenyl-5-[2-(pyridin-4-ylamino)-ethoxy]-benzolsulfonamid], in the assay on Pferdethrombin, the TT2.5 was determined as 44 Sekunden, the TT25 is 213 Sekunden and the TT250 is 300 Sekunden. This compound also yielded a Ki at humanem α-Thrombin of 150 nM.
As to `COc1ccc(OCCNc2ccncc2)cc1NS(=O)(=O)c1ccccc1` [Beispiel 59, N-{2-Methoxy-5-[2-(pyridin-4-ylamino)-ethoxy]-phenyl}-benzolsulfonamid], in the assay with Pferdethrombin, the TT2.5 is listed as 0 Sekunden, the TT25 amounted to 8 Sekunden and the TT250 was determined as 53 Sekunden. Also, the Ki on humanem α-Thrombin was 6000 nM.
On to `O=S(=O)(Nc1cccc(OCCNc2ccncc2)c1)C1CCCCC1` [Beispiel 8, N-{3-[2-(Pyridin-4-ylamino)-ethoxy]-phenyl}-cyclohexan-sulfonamid], for which, in the assay with Pferdethrombin, the TT2.5 came out at 13 Sekunden, the TT25 was 58 Sekunden and the TT250 was 288 Sekunden. Also, the inhibitory constant (Ki) on humanem α-Thrombin was 1000 nM.
Turning to `CC(CNc1ccncc1)Oc1cccc(NS(=O)(=O)c2ccccc2)c1` (centres unmarked) [Beispiel 10, N-{3-[1-Methyl-2-(pyridin-4-ylamino)-ethoxy]-phenyl}-benzolsulfonamid], in the assay on Pferdethrombin, the TT2.5 came to 7 Sekunden, the TT25 turned out to be 43 Sekunden and the TT250 amounted to 157 Sekunden. Besides, at humanem α-Thrombin, the affinity corresponds to a Ki of 3000 nM.
Taken in the same sequence, the figures for `Cc1cc(OCCN(C)c2ccncc2)cc(OS(=O)(=O)c2ccccc2Cl)c1` [Beispiel 72, 2-Chlorbenzolsulfonsäure-5-methyl-3-[2-(N-methyl-pyridin-4-ylamino)-ethoxy]-phenylester] were 159 Sekunden, 300 Sekunden, 300 Sekunden and 24 nM.
In the assay on Pferdethrombin, `CCc1cc(OCCNc2ccncc2)cc(OS(=O)(=O)c2ccccc2)c1` [Beispiel 90, Benzolsulfonsäure-3-ethyl-5-[2-(pyridin-4-ylamino)-ethoxy]-phenyl-ester] registered a TT2.5 of 125 Sekunden, a TT25 of 300 Sekunden and a TT250 of 300 Sekunden. At humanem α-Thrombin, this compound had a Ki of 24 nM.
Regarding `Cc1cc(OCCNc2ccncc2)cc(N(C)S(=O)(=O)c2ccccc2OCC(=O)O)c1` [Beispiel 124], in the assay with Pferdethrombin, the TT2.5 is given as 104 Sekunden, the TT25 was found to be 300 Sekunden and the TT250 was 300 Sekunden. At humanem α-Thrombin, this compound displayed a Ki of 250 nM.
For `O=S(=O)(Nc1cc(NCCNc2ccncc2)cc(C(F)(F)F)c1)c1ccccc1` [Beispiel 79, N-{3-[2-(Pyridin-4-ylamino)-ethylamino]-5-trifluormethyl-phenyl}-benzolsulfonamid], in the assay with Pferdethrombin, the TT2.5 is 0 Sekunden, the TT25 was found to be 8 Sekunden and the TT250 was 30 Sekunden. The compound also gave a Ki at humanem α-Thrombin of 5000 nM.
On to `Cc1cc(OCCNc2ccncc2)cc(N(CCN)S(=O)(=O)c2ccccc2)c1` [Beispiel 100, N-(2-Aminoethyl)-N-{3-[2-(pyridin-4-ylamino)-ethoxy]-5-methyl-phenyl}-benzolsulfonamid], for which, in the assay on Pferdethrombin, the TT2.5 was 186 Sekunden, the TT25 was 300 Sekunden and the TT250 is given as 300 Sekunden. This compound also registered a Ki at humanem α-Thrombin of 83 nM.
In the assay with Pferdethrombin, `COc1cc(OCCNc2ccncc2)cc(N(C)S(=O)(=O)c2ccccc2)c1` [Beispiel 83, N-Methyl-N-{3-[2-(pyridin-4-ylamino)-ethoxy]-5-methoxy-phenyl}-benzolsulfonamid] came in with a TT2.5 of 48 Sekunden, a TT25 of 192 Sekunden and a TT250 of 300 Sekunden. Also, at humanem α-Thrombin, the Ki was found to be 100 nM.
In the assay with Pferdethrombin, `Cc1ccc(OCCNc2ccncc2)cc1NS(=O)(=O)c1ccccc1` [Beispiel 60, N-{2-Methyl-5-[2-(pyridin-4-ylamino)-ethoxy]-phenyl}-benzolsulfonamid] yielded a TT2.5 of 13 Sekunden, a TT25 of 62 Sekunden and a TT250 of 137 Sekunden. This compound also came in with a Ki at humanem α-Thrombin of 600 nM.
In the assay on Pferdethrombin, `O=S(=O)(Nc1cc(Br)cc(NCCNc2ccncc2)c1)c1ccccc1` [Beispiel 89, N-{3-[2-(Pyridin-4-ylamino)-ethylamino]-5-brom-phenyl}-benzolsulfonamid] registered a TT2.5 of 6 Sekunden, a TT25 of 38 Sekunden and a TT250 of 132 Sekunden. The Ki at humanem α-Thrombin was determined as 1000 nM.

These data come from patent EP0687253B1, “4-AMINOPYRIDINES, PROCESS FOR PREPARING THE SAME AND MEDICAMENTS CONTAINING THE SAME” (BOEHRINGER MANNHEIM GMBH, priority 1993, dated 1994).
